In patent US20040259766A1, “Use of glutamate, glutamate derivatives or metabolites, glutamate analogues or mixtures thereof for the manufacture of a composition for the treatment of osteoporosis” (priority 2004, published 2004):
Like-named read-outs stand apart in the source and are kept apart here. Marks after values point to notes of the source that are not given here. Residues, ends and D or L forms follow the SMILES beside them.

Legend:
femur = experiment: Femur bone mineral density in intact, shame operated and ovariectomized rats given AKG in drinking water; type: in vivo, Wistar rat; details: in all three groups (INT, SHO, OVX); 60 days of drinking water with AKG; p<0.01 in all groups
Description: 60 female Wistar rats at the age of 2 months and with an initial bodyweight of 200 g are used.
The rats are divided into three groups (n=20), where Group 1 is shame operated, Group 2 is ovariectomized and Group 3 is intact, i.e. not operated at all.
20 of the rats are shame-operated (SHO), where the ovaries are exteriorised and replaced intact.
The second group of ovariectomized rats (OVX) are submitted to ovariectomy from a dorsal approach.
Six months after ovariectomy, the animals from group 1 and 2, are divided into two additional sub-groups; one placebo and one experimental group.
After 60 days with placebo and experimental drinking water the rats are anaesthetised in CO2 and femur isolated for further analysis of bone mineral density.

ulna bone = details: group A, 0.8 g/kg body weight oral
Procedure: During general anesthetic surgery, the ulnar is broken and optionally denervated. On the first day after operation saline, AKG or Ala-Gln is administered orally at a dose of 0.8 g/kg body weight in 2 ml.
After the experimental period, the turkeys will be weighed and sacrified in order to measure bone mineral density (BMD).
(§7) Bone mineral density (BMD) was analysed by DEXA (Dual Energy X-ray Absorptiometry) using LUNAR apparatus.

humerus and femur [1] = experiment: Architectural and geometric properties of humerus and femur of piglets; type: in vivo, pig; details: piglets at 35 days of postnatal life; 0.4 g/kg b.w. oral once a day; mean ± SEM
Procedure: (§1) All piglets suckled sow milk before weaning. After weaning at the age of 28 days piglets were fed ad libitum with a standard mixture Premix prestarter (PP) (Food plant-Motycz, Poland) and free access to water was allowed. Piglets were allotted to three experimental trials:
(§2) 2—Second group, receiving 0.4 g/kg/b.w. of L-alanyl-L-glutamine (ala-gin), (2 ml solution/kg b.w.)
(§3) At the age of 35 days, piglets were sacrificed, eviscerated and bones were sampled.
(§4) Architectural and geometric properties of bone were estimated based on measurements of horizontal and vertical cross section as well as interior and exterior diameter of the bone.
(§5) Mean relative wall thickness (MRWT) expresses the ratio of wall to lumen measures and serves as an indicator in the process of architectural adaptation of bone to physiological stress during the growth of the body. When the lumen increases with unchanged wall thickness the MRWT decreases but bone resistance to strain increases.

ribs [2] = experiment: Three point bending test (Instron 4302) of ribs of piglets given Ala-Gln or AKG orally; type: in vivo, pig
Procedure: as §1, §2, §3
(§6) Using Instron 4302 apparatus and applying three point bending test as presented in FIG. 1, the following properties of the bones were determined from curves showing the relation between load and deflection: […]

[3] = Gain of bodyweight of piglets during postnatal life; type: in vivo, pig
Procedure: as §1, §2, §3

right femur = experiment: Bone mineral density (DEXA) of the right femur of piglets; type: in vivo, pig; details: right femur proximal and distal metaphysis, 21 and 35 days (FIG. 17, 18)
Procedure: as §7

ribs [4] = experiment: Architectural and geometric properties of ribs of piglets; type: in vivo, pig; details: piglets at 35 days of postnatal life; 0.4 g/kg b.w. oral once a day; mean ± SEM
Procedure: as §1, §2, §3, §4, §5

humerus and femur [5] = experiment: Three point bending test (Instron 4302) of humerus and femur of piglets given Ala-Gln or AKG orally; type: in vivo, pig; details: piglets at 35 days of postnatal life; 0.4 g/kg b.w. oral once a day; mean ± SEM
Procedure: as §1, §2, §3, §6

[6] = piglets at 35 days of postnatal life, 0.4 g/kg b.w. oral once a day, mean ± SEM

O=C(O)CCC(=O)C(=O)O [AKG, alpha-ketoglutaric acid]
BMD, difference between AKG treated rats and placebo treated rats (femur): about 10%
BMD of the ulna bone, difference compared to saline treated turkeys (ulna bone; left wing control (intact), p<0.01): 25%
BMD of the ulna bone, difference compared to saline treated turkeys (ulna bone; right wing experimental (neurectomized, fracture of the ulnae), p<0.055): about 11%
Cross-sectional area (A) femur (humerus and femur [1]): 64.7 ± 3.82* mm^2
Cross-sectional area (A) humerus (humerus and femur [1]): 52.7 ± 4.1* mm^2
Second moment of inertia (Ix) femur (humerus and femur [1]): 696.5 ± 48.7* mm^4
Second moment of inertia (Ix) humerus (humerus and femur [1]): 459.4 ± 59.42* mm^4
Yielding stress of the 5th rib (ribs [2]; 35-days-old piglets, versus control, FIG. 11): significant increase
Bone maximum elastic strength (Wy) (ribs 4-9) (ribs [2]; [6]): 522.5 ± 17.97 N
Moment of ultimate strength ribs (4-9) (ribs [2]; [6]): 737.445 ± 23.85 N
Ultimate strength (Wf) (ribs 4-9) (ribs [2]; [6]): 585.1 ± 18.5 N
Bodyweight of the piglets versus control group and Ala-Gln group ([3]; p>0.01 in comparison to Ala-Gln as printed): more dramatic
Bone mineralization versus piglets receiving placebo (right femur): higher
Cross sectional area (A) (ribs 4-9) (ribs [4]): 10.52 ± 0.35* mm^2
MRWT (ribs 4-9) (ribs [4]): 0.60 ± 0.026
Second moment of inertia (ribs 4-9) (ribs [4]): 15.42 ± 0.93* mm^4
Bone maximum elastic strength (Wy) femur (humerus and femur [5]): 1042.9 ± 73.66 N
Bone maximum elastic strength (Wy) humerus (humerus and femur [5]): 726.0 ± 37.73 N
Bone ultimate strength (Wf) femur (humerus and femur [5]): 1123.0 ± 75.09 N
Bone ultimate strength (Wf) humerus (humerus and femur [5]): 857.6 ± 45.42 N

C[C@H](N)C(=O)N[C@@H](CCC(N)=O)C(=O)O [Ala-Gln, L-alanyl-L-glutamine, reference compound] (H-Ala-Gln-OH)
Mean relative wall thickness (MRWT) femur (humerus and femur [1]): 0.88 ± 0.12
Mean relative wall thickness (MRWT) humerus (humerus and femur [1]): 0.64 ± 0.07
Second moment of inertia (Ix) humerus (humerus and femur [1]): 368.4 ± 24.31* mm^4
Bodyweight difference (control group less than Ala-Gln treated group) ([3]; day 14, 0.4 g/kg b.w. oral): about 690 g
Bodyweight difference (control group less than Ala-Gln treated group) ([3]; day three, 0.4 g/kg b.w. oral): about 96 g
MRWT (ribs 4-9) (ribs [4]): 0.70 ± 0.038
Bone maximum elastic strength (Wy) femur (humerus and femur [5]): 1016.8 ± 46.68 N
Bone maximum elastic strength (Wy) humerus (humerus and femur [5]): 638.7 ± 9.91 N
Bone ultimate strength (Wf) humerus (humerus and femur [5]): 743.0 ± 15.71∇ N
